According to ChEMBL document CHEMBL4219066, “Identification and Mitigation of Reactive Metabolites of 2-Aminoimidazole-Containing Microsomal Prostaglandin E Synthase-1 Inhibitors Terminated Due to Clinical Drug-Induced Liver Injury” (J Med Chem, 2018):

Legend:
[1] = Drug metabolism in rat hepatocytes assessed as 2-amino-5-((R)-1-(carboxymethylamino)-3-((2-(2-chloro-5-(pivalamidomethyl)benzamido)-1H-imidazol-5-yl)disulfanyl)-1-oxopropan-2-ylamino)-5-oxopentanoic acid formation at 2 uM after 4 hrs by LC-MS/MS analysis; assay type: ADME, cell-based, Hepatocyte
[2] = Drug metabolism in rat hepatocytes assessed as 2-chloro-5-((3-hydroxy-2,2-dimethylpropanamido)methyl)-N-(1H-imidazol-2-yl)benzamide formation at 2 uM after 4 hrs by LC-MS/MS analysis; assay type: ADME, cell-based, Hepatocyte
[3] = Drug metabolism in dog hepatocytes assessed as 2-chloro-5-((3-hydroxy-2,2-dimethylpropanamido)methyl)-N-(1H-imidazol-2-yl)benzamide formation at 2 uM after 4 hrs by LC-MS/MS analysis; assay type: ADME, cell-based, Canis lupus familiaris, Hepatocyte
[4] = Drug metabolism in human hepatocytes assessed as 2-chloro-5-((3-hydroxy-2,2-dimethylpropanamido)methyl)-N-(1H-imidazol-2-yl)benzamide formation at 2 uM after 4 hrs by LC-MS/MS analysis; assay type: ADME, cell-based, Hepatocyte
[5] = Drug metabolism in rat hepatocytes assessed as 2-chloro-N-(4,5-dihydroxy-4,5-dihydro-1H-imidazol-2-yl)-5-(pivalamidomethyl)benzamide formation at 2 uM after 4 hrs by LC-MS/MS analysis; assay type: ADME, cell-based, Hepatocyte
[6] = Drug metabolism in dog hepatocytes assessed as 2-chloro-N-(4,5-dihydroxy-4,5-dihydro-1H-imidazol-2-yl)-5-(pivalamidomethyl)benzamide formation at 2 uM after 4 hrs by LC-MS/MS analysis; assay type: ADME, cell-based, Canis lupus familiaris, Hepatocyte
[7] = Drug metabolism in human hepatocytes assessed as 2-chloro-N-(4,5-dihydroxy-4,5-dihydro-1H-imidazol-2-yl)-5-(pivalamidomethyl)benzamide formation at 2 uM after 4 hrs by LC-MS/MS analysis; assay type: ADME, cell-based, Hepatocyte
[8] = Drug metabolism in rat hepatocytes assessed as 2-chloro-N-(4-hydroxy-1H-imidazol-2-yl)-5-(pivalamidomethyl)benzamide formation at 2 uM after 4 hrs by LC-MS/MS analysis; assay type: ADME, cell-based, Hepatocyte
[9] = Drug metabolism in dog hepatocytes assessed as 2-chloro-N-(4-hydroxy-1H-imidazol-2-yl)-5-(pivalamidomethyl)benzamide formation at 2 uM after 4 hrs by LC-MS/MS analysis; assay type: ADME, cell-based, Canis lupus familiaris, Hepatocyte
[10] = Drug metabolism in human hepatocytes assessed as 2-chloro-N-(4-hydroxy-1H-imidazol-2-yl)-5-(pivalamidomethyl)benzamide formation at 2 uM after 4 hrs by LC-MS/MS analysis; assay type: ADME, cell-based, Hepatocyte
[11] = Drug metabolism in dog hepatocytes assessed as N-carbamimidoyl-2-chloro-5-(pivalamidomethyl)benzamide formation at 2 uM after 4 hrs by LC-MS/MS analysis; assay type: ADME, cell-based, Canis lupus familiaris, Hepatocyte
[12] = Drug metabolism in Sprague-Dawley rat plasma assessed as 2-chloro-5-((3-hydroxy-2,2-dimethylpropanamido)methyl)-N-(1H-imidazol-2-yl)benzamide formation at 1000 mg/kg, po measured after 2 hrs post dose by LC/MS analysis; assay type: ADME, organism-based; settings: in vivo
[13] = Drug metabolism in Beagle dog plasma assessed as 2-chloro-5-((3-hydroxy-2,2-dimethylpropanamido)methyl)-N-(1H-imidazol-2-yl)benzamide formation at 300 to 600 mg/kg, po measured after 2 hrs post dose by LC/MS analysis; assay type: ADME, organism-based, Canis lupus familiaris; settings: in vivo
[14] = In vivo drug metabolism in human plasma assessed as 2-chloro-5-((3-hydroxy-2,2-dimethylpropanamido)methyl)-N-(1H-imidazol-2-yl)benzamide formation HPLC-MS analysis; assay type: ADME, organism-based
[15] = Drug metabolism in Sprague-Dawley rat plasma assessed as 2-chloro-N-(4,5-dihydroxy-4,5-dihydro-1H-imidazol-2-yl)-5-(pivalamidomethyl)benzamide formation at 1000 mg/kg, po measured after 2 hrs post dose by LC/MS analysis; assay type: ADME, organism-based; settings: in vivo
[16] = Drug metabolism in Beagle dog plasma assessed as 2-chloro-N-(4,5-dihydroxy-4,5-dihydro-1H-imidazol-2-yl)-5-(pivalamidomethyl)benzamide formation at 300 to 600 mg/kg, po measured after 2 hrs post dose by LC/MS analysis; assay type: ADME, organism-based, Canis lupus familiaris; settings: in vivo
[17] = Drug metabolism in Sprague-Dawley rat plasma assessed as 2-chloro-N-(4-hydroxy-1H-imidazol-2-yl)-5-(pivalamidomethyl)benzamide formation at 1000 mg/kg, po measured after 2 hrs post dose by LC/MS analysis; assay type: ADME, organism-based; settings: in vivo
[18] = Drug metabolism in Beagle dog plasma assessed as 2-chloro-N-(4-hydroxy-1H-imidazol-2-yl)-5-(pivalamidomethyl)benzamide formation at 300 to 600 mg/kg, po measured after 2 hrs post dose by LC/MS analysis; assay type: ADME, organism-based, Canis lupus familiaris; settings: in vivo
[19] = In vivo drug metabolism in human plasma assessed as 2-chloro-N-(4-hydroxy-1H-imidazol-2-yl)-5-(pivalamidomethyl)benzamide formation HPLC-MS analysis; assay type: ADME, organism-based
[20] = Drug metabolism in Sprague-Dawley rat plasma assessed as N-carbamimidoyl-2-chloro-5-(pivalamidomethyl)benzamide formation at 1000 mg/kg, po measured after 2 hrs post dose by LC/MS analysis; assay type: ADME, organism-based; settings: in vivo
[21] = Drug metabolism in Beagle dog plasma assessed as N-carbamimidoyl-2-chloro-5-(pivalamidomethyl)benzamide formation at 300 to 600 mg/kg, po measured after 2 hrs post dose by LC/MS analysis; assay type: ADME, organism-based, Canis lupus familiaris; settings: in vivo
[22] = In vivo drug metabolism in human plasma assessed as N-carbamimidoyl-2-chloro-5-(pivalamidomethyl)benzamide formation by HPLC-MS analysis; assay type: ADME, organism-based
[23] = Drug metabolism in Sprague-Dawley rat plasma assessed as 2-chloro-5-(pivalamidomethyl)benzoic acid formation at 1000 mg/kg, po measured after 2 hrs post dose by LC/MS analysis; assay type: ADME, organism-based; settings: in vivo
[24] = Drug metabolism in Beagle dog plasma assessed as 2-chloro-5-(pivalamidomethyl)benzoic acid formation at 300 to 600 mg/kg, po measured after 2 hrs post dose by LC/MS analysis; assay type: ADME, organism-based, Canis lupus familiaris; settings: in vivo
[25] = Drug metabolism in Sprague-Dawley rat plasma assessed as 5-(aminomethyl)-2-chloro-N-(1H-imidazol-2-yl)benzamide formation at 1000 mg/kg, po measured after 2 hrs post dose by LC/MS analysis; assay type: ADME, organism-based; settings: in vivo
[26] = Drug metabolism in Beagle dog plasma assessed as 5-(aminomethyl)-2-chloro-N-(1H-imidazol-2-yl)benzamide formation at 300 to 600 mg/kg, po measured after 2 hrs post dose by LC/MS analysis; assay type: ADME, organism-based, Canis lupus familiaris; settings: in vivo
[27] = In vivo drug metabolism in human urine assessed as 2-chloro-5-((3-hydroxy-2,2-dimethylpropanamido)methyl)-N-(1H-imidazol-2-yl)benzamide formation by HPLC-MS analysis; assay type: ADME, organism-based
[28] = In vivo drug metabolism in human urine assessed as 2-chloro-N-(4,5-dihydroxy-4,5-dihydro-1H-imidazol-2-yl)-5-(pivalamidomethyl)benzamide formation by HPLC-MS analysis; assay type: ADME, organism-based
[29] = In vivo drug metabolism in human urine assessed as 2-chloro-N-(4-hydroxy-1H-imidazol-2-yl)-5-(pivalamidomethyl)benzamide formation by HPLC-MS analysis; assay type: ADME, organism-based
[30] = In vivo drug metabolism in human urine assessed as N-carbamimidoyl-2-chloro-5-(pivalamidomethyl)benzamide formation by HPLC-MS analysis; assay type: ADME, organism-based
[31] = In vivo drug metabolism in human urine assessed as N-carbamimidoyl-2-chloro-5-((3-hydroxy-2,2-dimethylpropanamido)methyl)benzamide formation by HPLC-MS analysis; assay type: ADME, organism-based
[32] = In vivo drug metabolism in human urine assessed as (R)-2-amino-3-((2-(2-chloro-5-(pivalamidomethyl)benzamido)-1H-imidazol-5-yl)disulfanyl)propanoic acid formation by HPLC-MS analysis; assay type: ADME, organism-based
[33] = Drug metabolism in rat hepatocytes assessed as N-(6-oxa-2,4-diazabicyclo[3.1.0]hex-3-en-3-yl)-2-chloro-5-(pivalamidomethyl)benzamide formation at 2 uM after 4 hrs by LC-MS/MS analysis; assay type: ADME, cell-based, Hepatocyte
[34] = Drug metabolism in dog hepatocytes assessed as N-(6-oxa-2,4-diazabicyclo[3.1.0]hex-3-en-3-yl)-2-chloro-5-(pivalamidomethyl)benzamide formation at 2 uM after 4 hrs by LC-MS/MS analysis; assay type: ADME, cell-based, Canis lupus familiaris, Hepatocyte
[35] = Drug metabolism in human hepatocytes assessed as N-(6-oxa-2,4-diazabicyclo[3.1.0]hex-3-en-3-yl)-2-chloro-5-(pivalamidomethyl)benzamide formation at 2 uM after 4 hrs by LC-MS/MS analysis; assay type: ADME, cell-based, Hepatocyte
[36] = Drug metabolism in human liver microsomes assessed as N-(6-oxa-2,4-diazabicyclo[3.1.0]hex-3-en-3-yl)-2-chloro-5-(pivalamidomethyl)benzamide formation at 2 uM in presence of 1:1 ratio of unlabeled GSH and [glycine 13C2,15N]-labelled GSH after 0.5 hrs by HPLC-MS analysis; assay type: ADME, microsome
[37] = Drug metabolism in Sprague-Dawley rat plasma assessed as N-(6-oxa-2,4-diazabicyclo[3.1.0]hex-3-en-3-yl)-2-chloro-5-(pivalamidomethyl)benzamide formation at 1000 mg/kg, po measured after 2 hrs post dose by LC/MS analysis; assay type: ADME, organism-based; settings: in vivo
[38] = Drug metabolism in Beagle dog plasma assessed as N-(6-oxa-2,4-diazabicyclo[3.1.0]hex-3-en-3-yl)-2-chloro-5-(pivalamidomethyl)benzamide formation at 300 to 600 mg/kg, po measured after 2 hrs post dose by LC/MS analysis; assay type: ADME, organism-based, Canis lupus familiaris; settings: in vivo
[39] = In vivo drug metabolism in human plasma assessed as N-(6-oxa-2,4-diazabicyclo[3.1.0]hex-3-en-3-yl)-2-chloro-5-(pivalamidomethyl)benzamide formation HPLC-MS analysis; assay type: ADME, organism-based
[40] = In vivo drug metabolism in human urine assessed as N-(6-oxa-2,4-diazabicyclo[3.1.0]hex-3-en-3-yl)-2-chloro-5-(pivalamidomethyl)benzamide formation by HPLC-MS analysis; assay type: ADME, organism-based

- Drug metabolism [1]: Metabolite_Detected
- Drug metabolism [2]: Metabolite_Detected
- Drug metabolism [3]: Metabolite_Detected
- Drug metabolism [4]: Metabolite_Detected
- Drug metabolism [5]: Metabolite_Detected
- Drug metabolism [6]: Metabolite_Detected
- Drug metabolism [7]: Metabolite_Detected
- Drug metabolism [8]: Metabolite_Detected
- Drug metabolism [9]: Metabolite_Detected
- Drug metabolism [10]: Metabolite_Detected
- Drug metabolism [11]: Metabolite_Detected
- Drug metabolism [12]: Metabolite_Detected
- Drug metabolism [13]: Metabolite_Detected
- Drug metabolism [14]: Metabolite_Detected
- Drug metabolism [15]: Metabolite_Detected
- Drug metabolism [16]: Metabolite_Detected
- Drug metabolism [17]: Metabolite_Detected
- Drug metabolism [18]: Metabolite_Detected
- Drug metabolism [19]: Metabolite_Detected
- Drug metabolism [20]: Metabolite_Detected
- Drug metabolism [21]: Metabolite_Detected
- Drug metabolism [22]: Metabolite_Detected
- Drug metabolism [23]: Metabolite_Detected
- Drug metabolism [24]: Metabolite_Detected
- Drug metabolism [25]: Metabolite_Detected
- Drug metabolism [26]: Metabolite_Detected
- Drug metabolism [27]: Metabolite_Detected
- Drug metabolism [28]: Metabolite_Detected
- Drug metabolism [29]: Metabolite_Detected
- Drug metabolism [30]: Metabolite_Detected
- Drug metabolism [31]: Metabolite_Detected
- Drug metabolism [32]: Metabolite_Detected
- Drug metabolism [33]: Metabolite_Notdetected
- Drug metabolism [34]: Metabolite_Notdetected
- Drug metabolism [35]: Metabolite_Notdetected
- Drug metabolism [36]: Metabolite_Notdetected
- Drug metabolism [37]: Metabolite_Notdetected
- Drug metabolism [38]: Metabolite_Notdetected
- Drug metabolism [39]: Metabolite_Notdetected
- Drug metabolism [40]: Metabolite_Notdetected
Compound: CC(C)(C)C(=O)NCc1ccc(Cl)c(C(=O)Nc2ncc[nH]2)c1 [LY-3031207]
